The values that follow come from US7265139B2, “RXR activating molecules” (Incyte San Diego Inc., priority 2001, dated 2007).

One data set deals with db/db mice. As to conditions: at the concentrations used in the KKA^y study; cited from earlier work.
The next data set concerns KKA^y mice. Description: Antidiabetic activity in type 2 diabetic KKA^y mice. The class given is in vivo, mouse. The method, then: Prior to commencing treatment, all of the animals are bled from the tail vein and serum levels of glucose and triglyceride are measured in duplicate. The animals are then sorted into different treatment groups with equal average triglyceride levels. The animals are treated with a single daily oral dose of the test compound suspended in sesame oil (dose volume of 3 ml/kg).
In short, adult diabetic KKA^y mice are housed in a fixed 12—12-hr artificial light-dark cycle, and maintained on a standard rodent diet. Prior to commencing treatment, all of the animals are bled from the tail vein and serum levels of glucose and triglyceride are measured in duplicate. The animals are then sorted into different treatment groups with equal average triglyceride levels. The animals are treated with a single daily oral dose ranging from 3-30 mg/kg of the test compound suspended in sesame oil (dose volume of 3-5 ml/kg). Following one week of treatment the animals are bled from the tail vein and Serum glucose and triglycerides are measured in duplicate.
In this example, compound 1, which belongs to the novel subclass of RXR ligands is compared to a typical RXR ligand like compound 2 in the treatment of KKA^y mice.
For this study, adult diabetic KKA^y mice were housed in a fixed 12—12-hr artificial light-dark cycle, and maintained on a standard rodent diet. Prior to commencing treatment, all of the animals are bled from the tail vein and serum levels of glucose and triglyceride are measured in duplicate. The animals are then sorted into different treatment groups with equal average triglyceride levels. The animals are treated with a single daily oral dose of the test compound suspended in sesame oil (dose volume of 3 ml/kg).

Data set [1] has as its system Mouse 3T3-L1 preadipocytes. Description: 3T3-L1 adipocyte differentiation assay. It counts as cell-based. As to conditions: 0.1 μM compared to Compound 1 at equal concentration; pre-adipocytes to adipocytes. The method, then:
Mouse 3T3-L1 cells were grown in 96-well tissue culture plates containing growing medium (DME containing 10% calf serum (CS) plus glutamine-pen-strep) at a density of 3,000 cells/well. Two days after reaching confluence, cells are treated with the different compounds in DM (Day 0). Compound 1 is included in all the experiments, and its ability to differentiate 3T3-L1 cells at 0.1 μM is taken as reference for 100% differentiation. After 7 days the lipid content of the cells was determined.
Prior to testing compounds in vivo, they can be run through the in vitro adipocyte differentiation assay based on the protocol of Zhang, et al. (1996) Negative Regulation of Peroxisome Proliferator—Activated Receptor—γGene Expression Contributes to the Antiadipogenic effects of Tumor Necrosis Factor—α. Mol. Endo. 10:1457-1456, incorporated herein by reference. In short, mouse 3T3-L1 preadipocytes are grown in culture medium containing 10% calf serum supplemented with antibiotics. Two days after reaching confluence, cells are treated with the selected compound at different concentrations dissolved in medium containing 10% fetal calf serum supplemented with antibiotics and kept at 10% CO2. The test compounds are replaced every 2-3 days. Differentiation is assessed after 7 days of treatment by the lipid content in the cells, using the Triglyceride (INFINITY) reagent (Sigma Chemical, St. Louis, Mo.).
The ability of a compound to induce preadipocytes to differentiate into adipocytes is an indicator of its antidiabetic activity. This allows for screening many compounds in a simple in vitro assay, thus avoiding the task of testing all compounds in vivo. The adipocyte differentiation assay is based on the protocol of Zhang, et al. (1996) Negative Regulation of Peroxisome Proliferator-Activated Receptor-γ Gene Expression Contributes to the Antiadipogenic effects of Tumor Necrosis Factor—α. Mol. Endo. 10:1457-1456, incorporated herein by reference at least for material related to adipocyte differentiation assays. Mouse 3T3-L1 preadipocytes are grown in culture medium containing 10% calf serum supplemented with antibiotics. Two days after reaching confluence, cells are treated with the selected compound at different concentrations dissolved in medium containing 10% fetal calf serum supplemented with antibiotics and kept at 10% CO2. The test compounds are replaced every 2-3 days. Differentiation is assessed after 7 days of treatment by the lipid content in the cells, using the Triglyceride (INFINITY) reagent (Sigma Chemical, St. Louis, Mo.) (see FIG. 15).

Another data set relates to BALB/c mice. Description: Effect on serum triglyceride levels in wild type BALB/c mice. It counts as in vivo, mouse. The note with it: FIG. 13, p≦0.01. As to the method:
The animals were treated with a single daily oral dose of the test compound suspended in sesame oil (dose volume of 5 ml/kg). […], Animas treated with 10 and 30 mg/kg of Compound 1, which are doses that are 30 and 100 times the efficacious does in diabetic db/db mice, respectively, caused no increase in serum triglyceride levels compared to vehicle treated control animals.
Test compounds are tested in wild type mice at 10-100 times the efficacious dose in diabetic mice. Typically, adult male BALB/c mice are housed in a fixed 12—12-hr artificial light-dark cycle, and maintained on a standard rodent diet. The animals are treated with a single daily oral dose of the test compound suspended in sesame oil (dose volume of 5 ml/kg) as also described in the examples. Approximately two weeks later the animals are bled from the tail vein, then necropsied following sacrifice by carbon dioxide asphyxiation. Several serum biochemical parameters are measured. Of special significance is the effect the selected compounds have on serum triglyceride levels compared to vehicle treated control animals.
For these studies, adult male BALB/c mice were housed in a fixed 12—12-hr artificial light-dark cycle, and maintained on a standard rodent diet. The animals were treated with a single daily oral dose of the test compound suspended in sesame oil (dose volume of 5 ml/kg).

Where [2] appears, read: following two weeks of treatment.

In the case of `C=C(c1ccc(C(=O)O)cc1)c1cc2c(cc1C)C(C)(C)CCC2(C)C` [Compound 2, reference compound], in the data set on db/db mice, the “glucose levels in type 2 diabetic db/db mice” value is “lower” and the “triglyceride levels in type 2 diabetic db/db mice” value was “lower”. Besides, the “serum glucose levels compared to vehicle treated controls” value in the data set with KKA^y mice (5 and 15 mg/kg, single daily oral dose in sesame oil, FIG. 10) is on record as “no difference”. Moreover, in the data set with KKA^y mice (5 and 15 mg/kg, single daily oral dose, FIG. 11, statistically significant at 5 mg/kg), the “serum triglyceride levels compared to vehicle treated controls” value is “increase”. The “Efficacious in KKAy Mice” value in the data set on KKA^y mice (efficacious = lowers glucose without increasing triglycerides) was “No”. In the data set on KKA^y mice (setting [2]), the “glucose levels compared to vehicle treated controls” value is listed as “failed to decrease” and the “triglyceride levels compared to vehicle treated controls” value is on record as “significantly increased”. For the same compound, the “Differentiation Activity” value in data set [1] is listed as over 100%. Further, the “serum triglyceride levels compared to vehicle treated control animals” value in the data set with BALB/c mice (50 and 100 mg/kg, daily oral, statistically significant at 100 mg/kg) is “increase”. Moreover, the “serum triglyceride levels compared to vehicle treated controls” value in the data set with BALB/c mice (similar excess over its effective glucose lowering dose in db/db mice) is reported as “statistically significant, dose dependent increase”.
